In the supplement of paper PMC10307832 one finds relative viability data, which are given here for 9 cell lines.

Holding throughout (assay): relative viability (nuclei count vs DMSO), 5 days (fraction); higher = more cells survive
Compound in the assay “PAC-1 + Phenformin”: C=CCc1cccc(/C=N/NC(=O)CN2CCN(Cc3ccccc3)CC2)c1O [PAC-1] + N=C(N)NC(=N)NCCc1ccccc1 [Phenformin] (partner 250 µM)
In outline: (§1)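 The day after seeding in 1536-well plates, lung cancer cell lines were treated by pin tool with a single drug, or with a fixed anchor-drug dose together with five library-drug doses (not always all listed) in √10 steps. After 5 days, a combined fix-and-stain solution (final 0.05% Triton X-100, 1% formaldehyde, 1 ug/ml Hoechst) was added. Nuclei counted on 4× images gave relative viability as treated counts over vehicle counts, reported as the median of duplicate plates.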

Compound in the assay “Ibrutinib + Trametinib”: C=CC(=O)N1CCC[C@@H](n2nc(-c3ccc(Oc4ccccc4)cc3)c3c(N)ncnc32)C1 [Ibrutinib] + CC(=O)Nc1cccc(-n2c(=O)n(C3CC3)c(=O)c3c(Nc4ccc(I)cc4F)n(C)c(=O)c(C)c32)c1 [Trametinib] (partner 0.02 µM)
In outline:
as §1

Compound in the assay “BMX-IN-1 + Dasatinib”: C=CC(=O)Nc1cc(-n2c(=O)ccc3cnc4ccc(-c5ccc(NS(C)(=O)=O)cc5)cc4c32)ccc1C [BMX-IN-1] + Cc1nc(Nc2ncc(C(=O)Nc3c(C)cccc3Cl)s2)cc(N2CCN(CCO)CC2)n1 [Dasatinib] (partner 0.075 µM)
A digest of the protocol: as §1

Compound in the assay “PAC-1 + Olaparib”: C=CCc1cccc(/C=N/NC(=O)CN2CCN(Cc3ccccc3)CC2)c1O [PAC-1] + O=C(c1cc(Cc2n[nH]c(=O)c3ccccc23)ccc1F)N1CCN(C(=O)C2CC2)CC1 [Olaparib] (partner 8 µM)
A digest of the protocol: as §1

NCI-H1355: the relative viability in the assay with PAC-1 + Phenformin (first compound 0.02 µM) was found to be 0.461; with PAC-1 + Phenformin (first compound 0.06325 µM), 0.517; with PAC-1 + Phenformin (first compound 0.2 µM), 0.431; with PAC-1 + Phenformin (first compound 2 µM), 0.438; with Ibrutinib + Trametinib (first compound 0.01581 µM) it was 0.395; in the assay with Ibrutinib + Trametinib (first compound 0.05 µM), 0.363. The relative viability in the assay with Ibrutinib + Trametinib (first compound 0.1581 µM) was determined as 0.433; in the assay with Ibrutinib + Trametinib (first compound 0.5 µM), 0.368; in the assay with BMX-IN-1 + Dasatinib (first compound 0.02 µM), 0.772; with BMX-IN-1 + Dasatinib (first compound 0.2 µM), 0.777; with BMX-IN-1 + Dasatinib (first compound 0.6325 µM) it was 0.768; with BMX-IN-1 + Dasatinib (first compound 2 µM), 0.785. The relative viability worked out at 0.78 in the assay with PAC-1 + Olaparib (first compound 0.02 µM), 0.693 in the assay with PAC-1 + Olaparib (first compound 0.06325 µM), 0.724 with PAC-1 + Olaparib (first compound 0.2 µM) and 0.74 in the assay with PAC-1 + Olaparib (first compound 2 µM).

With LK-2, the relative viability was found to be 0.258 in the assay with PAC-1 + Phenformin (first compound 0.02 µM); 0.479 with PAC-1 + Phenformin (first compound 0.06325 µM); 0.381 with PAC-1 + Phenformin (first compound 0.2 µM); 0.559 with PAC-1 + Phenformin (first compound 2 µM); 0.931 with Ibrutinib + Trametinib (first compound 0.005 µM); 0.7 with Ibrutinib + Trametinib (first compound 0.01581 µM). The relative viability was 0.816 with Ibrutinib + Trametinib (first compound 0.05 µM); 0.702 with Ibrutinib + Trametinib (first compound 0.1581 µM); 0.668 with Ibrutinib + Trametinib (first compound 0.5 µM); 0.338 in the assay with BMX-IN-1 + Dasatinib (first compound 0.02 µM); 0.325 in the assay with BMX-IN-1 + Dasatinib (first compound 0.2 µM); 0.304 with BMX-IN-1 + Dasatinib (first compound 0.6325 µM). The relative viability was 0.282 with BMX-IN-1 + Dasatinib (first compound 2 µM); 0.774 with PAC-1 + Olaparib (first compound 0.02 µM); 0.704 with PAC-1 + Olaparib (first compound 0.06325 µM); 0.673 with PAC-1 + Olaparib (first compound 0.2 µM); 0.837 in the assay with PAC-1 + Olaparib (first compound 2 µM).

On to NCI-H1650, for which the relative viability in the assay with PAC-1 + Phenformin (first compound 0.02 µM) was determined as 0.427; in the assay with PAC-1 + Phenformin (first compound 0.06325 µM) it was 0.478; in the assay with PAC-1 + Phenformin (first compound 0.2 µM), 0.411; in the assay with PAC-1 + Phenformin (first compound 2 µM), 0.42; in the assay with Ibrutinib + Trametinib (first compound 0.005 µM), 0.881; with Ibrutinib + Trametinib (first compound 0.01581 µM), 0.535. Moreover, the relative viability in the assay with Ibrutinib + Trametinib (first compound 0.05 µM) stood at 0.46; with Ibrutinib + Trametinib (first compound 0.1581 µM) it was 0.527; with Ibrutinib + Trametinib (first compound 0.5 µM) it was 0.477; with BMX-IN-1 + Dasatinib (first compound 0.02 µM) it was 0.299; with BMX-IN-1 + Dasatinib (first compound 0.2 µM), 0.307; with BMX-IN-1 + Dasatinib (first compound 0.6325 µM), 0.423. The relative viability with BMX-IN-1 + Dasatinib (first compound 2 µM) is 0.294; with PAC-1 + Olaparib (first compound 0.02 µM), 0.709; with PAC-1 + Olaparib (first compound 0.06325 µM) it was 0.751; with PAC-1 + Olaparib (first compound 0.2 µM), 0.726; in the assay with PAC-1 + Olaparib (first compound 2 µM) it was 0.674.

As for NCI-H838, the relative viability in the assay with PAC-1 + Phenformin (first compound 0.02 µM) was 0.509; with PAC-1 + Phenformin (first compound 0.06325 µM), 0.585; in the assay with PAC-1 + Phenformin (first compound 0.2 µM) it was 0.46; in the assay with PAC-1 + Phenformin (first compound 2 µM), 0.572; with Ibrutinib + Trametinib (first compound 0.005 µM), 0.342; with Ibrutinib + Trametinib (first compound 0.01581 µM), 0.484. Besides, the relative viability with Ibrutinib + Trametinib (first compound 0.05 µM) came to 0.528; with Ibrutinib + Trametinib (first compound 0.1581 µM), 0.523; with Ibrutinib + Trametinib (first compound 0.5 µM), 0.499; with BMX-IN-1 + Dasatinib (first compound 0.02 µM) it was 0.28; in the assay with BMX-IN-1 + Dasatinib (first compound 0.2 µM), 0.323; in the assay with BMX-IN-1 + Dasatinib (first compound 0.6325 µM), 0.347. For the same cell line, the relative viability with BMX-IN-1 + Dasatinib (first compound 2 µM) was found to be 0.282; with PAC-1 + Olaparib (first compound 0.02 µM), 0.715; with PAC-1 + Olaparib (first compound 0.06325 µM), 0.735; in the assay with PAC-1 + Olaparib (first compound 0.2 µM) it was 0.727; with PAC-1 + Olaparib (first compound 2 µM), 0.656.

With EMC-BAC-2, the relative viability in the assay with PAC-1 + Phenformin (first compound 0.02 µM) worked out at 0.496; with PAC-1 + Phenformin (first compound 0.06325 µM), 0.556; with PAC-1 + Phenformin (first compound 0.2 µM) it was 0.52; in the assay with PAC-1 + Phenformin (first compound 2 µM), 0.511; in the assay with Ibrutinib + Trametinib (first compound 0.005 µM), 0.836; with Ibrutinib + Trametinib (first compound 0.01581 µM), 0.895. The relative viability with Ibrutinib + Trametinib (first compound 0.5 µM) was 1.03; with BMX-IN-1 + Dasatinib (first compound 0.02 µM) it was 0.348; in the assay with BMX-IN-1 + Dasatinib (first compound 0.2 µM), 0.345; with BMX-IN-1 + Dasatinib (first compound 0.6325 µM), 0.326; with BMX-IN-1 + Dasatinib (first compound 2 µM), 0.353; with PAC-1 + Olaparib (first compound 0.02 µM), 0.523. The relative viability with PAC-1 + Olaparib (first compound 0.06325 µM) is 0.481; in the assay with PAC-1 + Olaparib (first compound 0.2 µM), 0.488; in the assay with PAC-1 + Olaparib (first compound 2 µM) it was 0.504.

As to SW 1573, the relative viability came out at 0.372 with PAC-1 + Phenformin (first compound 0.02 µM); 0.352 with PAC-1 + Phenformin (first compound 0.06325 µM); 0.36 with PAC-1 + Phenformin (first compound 0.2 µM); 0.303 with PAC-1 + Phenformin (first compound 2 µM); 0.462 with Ibrutinib + Trametinib (first compound 0.01581 µM); 0.618 in the assay with Ibrutinib + Trametinib (first compound 0.05 µM). Moreover, the relative viability came out at 0.547 with Ibrutinib + Trametinib (first compound 0.1581 µM); 0.661 with Ibrutinib + Trametinib (first compound 0.5 µM); 0.531 in the assay with BMX-IN-1 + Dasatinib (first compound 0.02 µM); 0.63 with BMX-IN-1 + Dasatinib (first compound 0.2 µM); 0.456 with BMX-IN-1 + Dasatinib (first compound 0.6325 µM); 0.528 in the assay with BMX-IN-1 + Dasatinib (first compound 2 µM). Further, the relative viability was found to be 0.446 with PAC-1 + Olaparib (first compound 0.02 µM), 0.426 in the assay with PAC-1 + Olaparib (first compound 0.06325 µM), 0.442 with PAC-1 + Olaparib (first compound 0.2 µM) and 0.41 with PAC-1 + Olaparib (first compound 2 µM).

As for CAL-12T, the relative viability was determined as 0.6 with PAC-1 + Phenformin (first compound 0.02 µM); 0.657 with PAC-1 + Phenformin (first compound 0.06325 µM); 0.542 in the assay with PAC-1 + Phenformin (first compound 0.2 µM); 0.571 in the assay with PAC-1 + Phenformin (first compound 2 µM); 0.236 with Ibrutinib + Trametinib (first compound 0.005 µM); 0.297 with Ibrutinib + Trametinib (first compound 0.01581 µM). The relative viability with Ibrutinib + Trametinib (first compound 0.05 µM) stood at 0.3; with Ibrutinib + Trametinib (first compound 0.1581 µM) it was 0.382; with Ibrutinib + Trametinib (first compound 0.5 µM), 0.298; in the assay with BMX-IN-1 + Dasatinib (first compound 0.02 µM) it was 0.353; with BMX-IN-1 + Dasatinib (first compound 0.2 µM), 0.444; with BMX-IN-1 + Dasatinib (first compound 0.6325 µM), 0.528. The relative viability with BMX-IN-1 + Dasatinib (first compound 2 µM) was 0.366; in the assay with PAC-1 + Olaparib (first compound 0.02 µM), 0.719; in the assay with PAC-1 + Olaparib (first compound 0.06325 µM), 0.701; in the assay with PAC-1 + Olaparib (first compound 0.2 µM), 0.72; with PAC-1 + Olaparib (first compound 2 µM), 0.695.

In the case of NCI-H2009, the relative viability with PAC-1 + Phenformin (first compound 0.02 µM) amounted to 0.473; with PAC-1 + Phenformin (first compound 0.06325 µM), 0.481; with PAC-1 + Phenformin (first compound 0.2 µM), 0.451; with PAC-1 + Phenformin (first compound 2 µM) it was 0.484; in the assay with Ibrutinib + Trametinib (first compound 0.005 µM) it was 0.208; with Ibrutinib + Trametinib (first compound 0.01581 µM), 0.252. The relative viability amounted to 0.253 in the assay with Ibrutinib + Trametinib (first compound 0.05 µM); 0.306 in the assay with Ibrutinib + Trametinib (first compound 0.1581 µM); 0.234 with Ibrutinib + Trametinib (first compound 0.5 µM); 0.303 in the assay with BMX-IN-1 + Dasatinib (first compound 0.02 µM); 0.294 in the assay with BMX-IN-1 + Dasatinib (first compound 0.2 µM); 0.278 with BMX-IN-1 + Dasatinib (first compound 0.6325 µM). Moreover, the relative viability was found to be 0.271 with BMX-IN-1 + Dasatinib (first compound 2 µM); 0.681 in the assay with PAC-1 + Olaparib (first compound 0.02 µM); 0.655 with PAC-1 + Olaparib (first compound 0.06325 µM); 0.677 with PAC-1 + Olaparib (first compound 0.2 µM); 0.652 with PAC-1 + Olaparib (first compound 2 µM).

For the cell line HARA, the relative viability with PAC-1 + Phenformin (first compound 0.02 µM) is 0.438; with PAC-1 + Phenformin (first compound 0.06325 µM), 0.476; with PAC-1 + Phenformin (first compound 0.2 µM) it was 0.446; with PAC-1 + Phenformin (first compound 2 µM) it was 0.507; in the assay with Ibrutinib + Trametinib (first compound 0.005 µM) it was 0.719; with Ibrutinib + Trametinib (first compound 0.01581 µM), 0.633. Also, the relative viability with Ibrutinib + Trametinib (first compound 0.05 µM) was determined as 0.638; with Ibrutinib + Trametinib (first compound 0.1581 µM), 0.78; with Ibrutinib + Trametinib (first compound 0.5 µM) it was 0.262; with BMX-IN-1 + Dasatinib (first compound 0.02 µM), 0.258; in the assay with BMX-IN-1 + Dasatinib (first compound 0.2 µM), 0.305; with BMX-IN-1 + Dasatinib (first compound 0.6325 µM) it was 0.342. The relative viability in the assay with BMX-IN-1 + Dasatinib (first compound 2 µM) is 0.244; with PAC-1 + Olaparib (first compound 0.02 µM), 0.769; in the assay with PAC-1 + Olaparib (first compound 0.06325 µM), 0.65; in the assay with PAC-1 + Olaparib (first compound 0.2 µM), 0.813; with PAC-1 + Olaparib (first compound 2 µM), 1.16.
